For experiment [1], the target named is EGFR (murine) (UniProt P00533). The following applies: nih3t3/c7.
A further experiment deals with EGFR (UniProt P00533).
For experiment [2], the target named is EGFR (murine) (UniProt P00533). As to conditions: 3t3.

pIC50: −log10 of the molar value.

For orientation: pIC50 means the IC50 on a negative log10 scale, so that one unit is a factor of ten. Higher therefore signals a small IC50.

Chain of EGFR (P00533 whole entry, looked up): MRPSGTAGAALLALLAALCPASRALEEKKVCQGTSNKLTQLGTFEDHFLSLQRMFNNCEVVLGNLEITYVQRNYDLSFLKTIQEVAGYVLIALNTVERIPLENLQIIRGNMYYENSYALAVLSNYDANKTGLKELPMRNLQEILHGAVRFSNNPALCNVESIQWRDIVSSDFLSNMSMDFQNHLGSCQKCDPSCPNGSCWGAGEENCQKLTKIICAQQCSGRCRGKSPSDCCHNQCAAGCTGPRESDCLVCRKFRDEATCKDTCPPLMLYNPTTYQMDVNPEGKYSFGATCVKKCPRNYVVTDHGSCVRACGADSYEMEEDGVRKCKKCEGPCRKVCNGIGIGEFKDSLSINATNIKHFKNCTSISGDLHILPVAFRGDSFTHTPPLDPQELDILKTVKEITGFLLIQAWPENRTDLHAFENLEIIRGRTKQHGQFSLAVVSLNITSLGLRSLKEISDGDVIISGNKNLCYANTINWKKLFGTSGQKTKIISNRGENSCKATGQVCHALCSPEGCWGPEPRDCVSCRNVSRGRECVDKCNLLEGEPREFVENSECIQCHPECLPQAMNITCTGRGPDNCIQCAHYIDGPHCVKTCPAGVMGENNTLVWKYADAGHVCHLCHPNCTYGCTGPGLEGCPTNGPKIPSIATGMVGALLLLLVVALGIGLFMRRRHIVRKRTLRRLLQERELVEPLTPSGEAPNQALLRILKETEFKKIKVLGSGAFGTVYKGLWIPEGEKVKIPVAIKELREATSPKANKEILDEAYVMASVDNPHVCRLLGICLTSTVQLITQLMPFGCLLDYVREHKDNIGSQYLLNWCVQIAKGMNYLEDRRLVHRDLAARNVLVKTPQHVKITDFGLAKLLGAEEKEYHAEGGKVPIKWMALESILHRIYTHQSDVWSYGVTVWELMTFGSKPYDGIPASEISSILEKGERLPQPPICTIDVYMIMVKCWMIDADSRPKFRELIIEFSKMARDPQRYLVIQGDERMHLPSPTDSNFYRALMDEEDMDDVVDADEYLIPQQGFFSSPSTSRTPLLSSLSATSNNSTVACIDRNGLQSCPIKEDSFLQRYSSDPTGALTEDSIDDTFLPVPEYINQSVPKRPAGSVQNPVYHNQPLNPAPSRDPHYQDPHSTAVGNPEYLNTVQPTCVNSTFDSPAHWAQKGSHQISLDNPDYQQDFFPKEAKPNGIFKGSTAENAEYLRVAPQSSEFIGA
Chain of EGFR (murine) (P00533 whole entry, looked up): as above

`CC(=O)Nc1ccc2c(c1)NC(=O)/C2=C/c1ccc(OCCN2CCOCC2)cc1-c1cccs1`: the pIC50 is 4.10 with EGFR (murine) [1], < 4.00 against EGFR and 4.54 with EGFR (murine) [2].
`Cc1c[nH]c(/C=C2\C(=O)Nc3cccc(C)c32)c1CCC(=O)O`: at EGFR, the pIC50 is < 4.00.
Take `COc1ccccc1-c1ccc2c(c1)NC(=O)/C2=C\c1[nH]c2c(c1CCC(=O)O)CCCC2`: the pIC50 with EGFR (murine) [1] and at EGFR was < 4.00 throughout.
Take `CN(C)S(=O)(=O)c1ccc2c(c1)/C(=C/c1ccc3[nH]ccc3c1)C(=O)N2`: the pIC50 with EGFR (murine) [1] and at EGFR was < 4.00 each time.
As for `CCOC(=O)c1[nH]c(/C=C2\C(=O)Nc3ccccc32)c(CCC(=O)O)c1C`, the pIC50 against EGFR was < 4.00.
`CNS(=O)(=O)c1ccc2c(c1)/C(=C/c1c[nH]c3ccccc13)C(=O)N2`: the pIC50 in the experiment with EGFR (murine) [1] and against EGFR was < 4.00 each time.
In the case of `CNS(=O)(=O)c1ccc2c(c1)/C(=C/c1ccc3[nH]ccc3c1)C(=O)N2`, the pIC50 in the experiment with EGFR (murine) [1] and on EGFR was < 4.00 each time.
Regarding `COc1ccc(-c2ccc3c(c2)NC(=O)/C3=C\c2[nH]c3c(c2CCC(=O)O)CCCC3)cc1`, the pIC50 with EGFR (murine) [1] is < 4.00.
For the compound `O=C(O)CCc1c(/C=C2\C(=O)Nc3cc(-c4ccccc4)ccc32)[nH]c2c1CCCC2`, the pIC50 with EGFR (murine) [1] and at EGFR was < 4.00 in each case.
Consider `Cc1[nH]c2ccccc2c1/C=C1\C(=O)Nc2ccc(S(=O)(=O)N(C)C)cc21`, for which the pIC50 in the experiment with EGFR (murine) [1] and against EGFR was < 4.00 in each case.
With `COc1ccc2c(c1)NC(=O)/C2=C\c1[nH]c2c(c1CCC(=O)O)CCCC2`, the pIC50 against EGFR was < 4.00.
In the case of `CNS(=O)(=O)c1ccc2c(c1)/C(=C/c1c(C)[nH]c3ccccc13)C(=O)N2`, the pIC50 in the experiment with EGFR (murine) [1] and against EGFR was < 4.00 each time.
Take `O=C(O)CCc1c(/C=C2\C(=O)Nc3ccccc32)[nH]c2c1CCCC2`: at EGFR, the pIC50 is < 4.00.
With `O=C(O)CCc1c(/C=C2\C(=O)Nc3ccc(Br)cc32)[nH]c2c1CCCC2`, the pIC50 with EGFR (murine) [1] and against EGFR was < 4.00 throughout.
Consider `CCOc1cccc(-c2ccc3c(c2)NC(=O)/C3=C\c2[nH]cc(C)c2CCC(=O)O)c1`, for which, on EGFR, the pIC50 was < 4.00.
Regarding `NS(=O)(=O)c1ccc2c(c1)/C(=C/c1ccc3[nH]ccc3c1)C(=O)N2`, the pIC50 with EGFR (murine) [1] and at EGFR was < 4.00 in each case.
Regarding `CN(C)S(=O)(=O)c1ccc2c(c1)/C(=C/c1cc3ccccc3[nH]1)C(=O)N2`, the pIC50 with EGFR (murine) [1] and against EGFR was < 4.00 throughout.
With `Cc1[nH]c2ccccc2c1/C=C1\C(=O)Nc2ccc(S(N)(=O)=O)cc21`, the pIC50 in the experiment with EGFR (murine) [1] and against EGFR was < 4.00 in each case.
Take `CN(C)S(=O)(=O)c1ccc2c(c1)/C(=C/c1c[nH]c3ccccc13)C(=O)N2`: the pIC50 with EGFR (murine) [1] and against EGFR was < 4.00 each time.

(Values after the Kinase Knowledgebase extract (Sharma et al. 2016).)
